Test results from patent US20220265668A1, “TREATMENT AND/OR PREVENTION OF LESIONS IN THE CENTRAL AUDITORY NERVOUS SYSTEM” (SENSORION, priority 2019, published 2022).

Key:
[1] = tested on: outer hair cells (OHC) in the cochlea; assay: Cochlear hair cell loss (cochleogram) after noise trauma; assay type: in vivo, mice; conditions: 26.4 mg/kg peroral once daily for 14 days after noise trauma; at growing distances from the apex; vs placebo; FIG. 2
Experimental: (§1) Noise application was performed for 3 h under anesthesia, using a broad band noise 4-20 kHz, 115 dB SPL, free-field.
(§2) Post-traumatic (0; 24 h; 48 h or 72 h after noise exposure) initiation of oral administration of 26.4 mg/kg (R)-azasetron besylate or of the related placebo formulation, respectively, was performed once daily. Treatments were continued daily for 14 days. • Treatment (T) group 1 +Placebo (P) group 1: Treatment from d1-d14 • Treatment (T) group 2 +Placebo (P) group 2: Treatment from d2-d15 • Treatment (T) group 3 +Placebo (P) group 3: Treatment from d3-d16 • Treatment (T) group 4 +Placebo (P) group 4: Treatment from d4-d17
(§3) Six animals per group (48 in total) have been perfused via the left hearth chamber with a fixative solution (paraformaldehyde (4%)) on day 15.
(§4) Cochleae and brains were prepared (cutting, staining), as disclosed in Gröschel et al. (2010).

[2] = tested on: neuronal cells in the ventral cochlear nucleus (VCN); assay: Neuronal cell density in the ventral cochlear nucleus (VCN) after noise trauma; assay type: in vivo, mice
Experimental: as §1, §2, §3, §4

[3] = tested on: young adult NMRI mice having undergone an acoustic trauma; assay: Frequency specific ABR thresholds after noise trauma; assay type: in vivo; conditions: 26.4 mg/kg peroral once daily for 14 days after noise trauma (4-20 kHz, 115 dB SPL, 3 h); compared to placebo; FIG. 1
Experimental: 12 animals per group (young adult Naval Medical Research Institute (NMRI) mice), 96 animals in total.
Frequency specific ABR-thresholds at 4; 8; 12; 16; 20; 24; 28; 32 kHz under anesthesia (Ketamine/Xylazine). At least 3 measurements per frequency were performed.
as §1, §2

[4] = tested on: neuronal cells in the inferior colliculus (IC); assay: Neuronal cell density in the inferior colliculus (IC) after noise trauma; assay type: in vivo, mice; conditions: 26.4 mg/kg peroral once daily for 14 days, initiated 0 h, 24 h, 48 h or 72 h after acoustic trauma; compared to placebo; FIG. 5
Experimental: as §1, §2, §3, §4

| Structure (SMILES) | loss of outer hair cells (OHC) in the cochlea [1] | destruction of neuronal cells in the VCN (normalized cell densities per grid) ([2]; 26.4 mg/kg peroral once daily for 14 days, initiated immediately or 24/48/72 h after acoustic trauma, vs placebo, FIGS. 3 and 4) | threshold shift of the auditory brainstem response [3] | destruction of neuronal cells in the IC (normalized cell densities per grid) [4] | loss of neurons in the brainstem ([2]; administration upon the onset of lesions after acoustic trauma, summary in discussion (VCN and IC)) |
| --- | --- | --- | --- | --- | --- |
| CN1C(=O)COc2c(C(=O)N[C@H]3CN4CCC3CC4)cc(Cl)cc21 [(R)-azasetron besylate] | affects the loss of outer hair cells | reduces the destruction of neuronal cells | does not significantly affect | reduces the destruction of neuronal cells |  |
| CN1C(=O)COc2c(C(=O)NC3CN4CCC3CC4)cc(Cl)cc21 (centres unmarked) [azasetron, N-(1-azabicyclo[2.2.2]octan-8-yl)-6-chloro-4-methyl-3-oxo-1,4-benzoxazine-8-carboxamide, reference compound] |  |  |  |  | significantly reduce the loss of neurons |
